Data: patent publication US20030212107A1, “R-reliprodil for treating glaucoma” (priority 2002, published 2003)
“Also recorded” adds a separate entry of the source.

Legend:
[1] = system: cultured rat retinal ganglion cells; assay: Glutamate-induced rat retinal ganglion cell death; assay type: cell-based; details: 10 nM for 30 minutes, then 100 μM glutamate; viable cells counted after 3 days; FIG. 1
Description: Retinal ganglion cells were selected as they represent the retinal cell that degenerates in glaucoma. MK-801 was selected as a reference NMDA antagonist.
Isolation of rat retinal ganglion cells and assessment of viability in the absence and presence of glutamate was described in Pang, et al., “Protection by Eliprodil Against Excitotoxicity in Cultured Rat Retinal Ganglion Cells”, Investigative Ophthalmology & Visual Science, Vol. 40(6), pp. 1170-1176, May, 1999. Briefly, isolated cultured rat retinal ganglion cells were treated with racemic (R/S) eliprodil (10 nM), R-eliprodil (10 nM), or S-eliprodil (10 nM) for thirty (30) minutes followed by the addition of 100 μM glutamate. Survival was determined by counting viable cells after an incubation period of three (3) days. Survival with vehicle alone defines 100%. […] S-eliprodil was ineffective.

[2] = cat, in vivo
Procedure: Eliprodil and its enantiomers were evaluated for their potential for prolonging QTc by determining their dose-related effects on cardiac electrical activity. Two different experimental models were utilized for these studies: (1) Action potential duration in piglet Purkinje fibers from the heart and (2) Electrocardiographic parameters in pentobarbital anesthetized cats.
Eliprodil and its two enantiomers were also evaluated for hemodynamic and electrocardiographic parameters in pentobarbital-anesthetized cats. […] Compounds were administered at increasing doses from 0.01 to 3 mg/kg as a five-minute intravenous infusion every 20 minutes.

[3] = system: voltage operated calcium channels of the L, N and P type; assay: Antagonism at voltage operated calcium channels
Description: (§1) The role of these pharmacological activities in the neuroprotective efficacy has not been established for this drug.

[4] = system: sodium channels; assay: Antagonism at sodium channels
Description: as §1

[5] = system: hippocampal slices; assay: Recovery of synaptic transmission after hypoxia in hippocampal slices in vitro; details: for Recovery of excitatory post synaptic potentials following hypoxia (efficacy): comparable dose, 15 minute hypoxia, recovery assessed 60 minutes after reoxygenation
Procedure: Dose-Response Relations Comparing the Efficacy of Racemic (R/S)-Eliprodil (Open Circles), R-Eliprodil (Closed Circles) and Memantine (Closed Diamonds) for their Ability to Improve Recovery of Synaptic Transmission Following a 15 Minute Period of Hypoxia in Hippocampal Slices in vitro (FIG. 2). […] Briefly, hippocampal slices were prepared acutely the same day as the experiment, and each compound was bath applied 30 minutes prior to delivery of the 15 minute hypoxic insult. Recovery of evoked […] expressed as percent of the initial, pre-hypoxia epsp maximum slope, with this percent recovery assessed 60 minutes after reoxygenation.

[6] = system: piglet Purkinje fibre; details: for Concentration with statistically significant prolongation of APD90: pig
Procedure: Eliprodil and its two enantiomers induced concentration-dependent prolongation of the duration of the action potential of the piglet Purkinje fibre, particularly at the 0.25 Hz frequency. Based on action potential duration at 90% repolarization (APD90), statistically significant prolongation was evident at R(−) eliprodil concentrations of 100 nM and higher, but at S(+) eliprodil concentrations of 30 nM and higher. With high concentrations, APD90 decreased with both compounds.

[7] = system: α1-adrenergic; assay: Binding studies; details: α1-adrenergic binding site
Description: as §1

[8] = target: histamine H2 (Homo sapiens, UniProt P25021); assay: Binding studies; details: histamine H2 binding site
Description: as §1

[9] = target: 5-HT uptake (Homo sapiens, UniProt P31645); assay: Binding studies; details: 5-HT uptake binding site
Description: as §1

[10] = target: β3-adrenergic (Homo sapiens, UniProt P13945); assay: Binding studies; details: β3-adrenergic binding site
Description: as §1

[11] = target: 5-HT7 (Homo sapiens, UniProt P34969); assay: Binding studies; details: 5-HT7 binding site
Description: as §1

[12] = target: T1, 5-HT1A (Homo sapiens, UniProt P08908); assay: Binding studies; details: 5-HT1A binding site
T1 sequence (P08908 1-422): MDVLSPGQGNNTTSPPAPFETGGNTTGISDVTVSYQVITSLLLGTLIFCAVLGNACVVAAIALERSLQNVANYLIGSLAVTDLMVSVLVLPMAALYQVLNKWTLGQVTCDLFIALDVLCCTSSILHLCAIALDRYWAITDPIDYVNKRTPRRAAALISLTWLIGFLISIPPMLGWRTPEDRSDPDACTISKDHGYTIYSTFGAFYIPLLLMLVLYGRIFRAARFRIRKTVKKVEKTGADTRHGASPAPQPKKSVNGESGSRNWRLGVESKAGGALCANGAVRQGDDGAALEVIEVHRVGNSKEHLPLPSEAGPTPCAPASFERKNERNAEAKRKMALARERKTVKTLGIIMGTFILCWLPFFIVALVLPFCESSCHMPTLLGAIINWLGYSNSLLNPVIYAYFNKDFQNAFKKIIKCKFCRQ
Description: as §1

[13] = target: histamine H1 (Homo sapiens, UniProt P35367); assay: Binding studies; details: histamine H1 binding site
Description: as §1

[14] = target: 5-HT2A (Homo sapiens, UniProt P28223); assay: Binding studies; details: 5-HT2A binding site
Description: as §1

[15] = system: NMDA-induced firing rate of the lateral vestibular nucleus; assay: NMDA-induced firing rate of the lateral vestibular nucleus in vivo
[16] = following some doses in humans; cited from earlier work
[17] = target: NMDA receptor (Homo sapiens, UniProt Q05586+Q13224); assay: biochemical
NMDA receptor, sequence (Q13224 27-1484, other chains not shown): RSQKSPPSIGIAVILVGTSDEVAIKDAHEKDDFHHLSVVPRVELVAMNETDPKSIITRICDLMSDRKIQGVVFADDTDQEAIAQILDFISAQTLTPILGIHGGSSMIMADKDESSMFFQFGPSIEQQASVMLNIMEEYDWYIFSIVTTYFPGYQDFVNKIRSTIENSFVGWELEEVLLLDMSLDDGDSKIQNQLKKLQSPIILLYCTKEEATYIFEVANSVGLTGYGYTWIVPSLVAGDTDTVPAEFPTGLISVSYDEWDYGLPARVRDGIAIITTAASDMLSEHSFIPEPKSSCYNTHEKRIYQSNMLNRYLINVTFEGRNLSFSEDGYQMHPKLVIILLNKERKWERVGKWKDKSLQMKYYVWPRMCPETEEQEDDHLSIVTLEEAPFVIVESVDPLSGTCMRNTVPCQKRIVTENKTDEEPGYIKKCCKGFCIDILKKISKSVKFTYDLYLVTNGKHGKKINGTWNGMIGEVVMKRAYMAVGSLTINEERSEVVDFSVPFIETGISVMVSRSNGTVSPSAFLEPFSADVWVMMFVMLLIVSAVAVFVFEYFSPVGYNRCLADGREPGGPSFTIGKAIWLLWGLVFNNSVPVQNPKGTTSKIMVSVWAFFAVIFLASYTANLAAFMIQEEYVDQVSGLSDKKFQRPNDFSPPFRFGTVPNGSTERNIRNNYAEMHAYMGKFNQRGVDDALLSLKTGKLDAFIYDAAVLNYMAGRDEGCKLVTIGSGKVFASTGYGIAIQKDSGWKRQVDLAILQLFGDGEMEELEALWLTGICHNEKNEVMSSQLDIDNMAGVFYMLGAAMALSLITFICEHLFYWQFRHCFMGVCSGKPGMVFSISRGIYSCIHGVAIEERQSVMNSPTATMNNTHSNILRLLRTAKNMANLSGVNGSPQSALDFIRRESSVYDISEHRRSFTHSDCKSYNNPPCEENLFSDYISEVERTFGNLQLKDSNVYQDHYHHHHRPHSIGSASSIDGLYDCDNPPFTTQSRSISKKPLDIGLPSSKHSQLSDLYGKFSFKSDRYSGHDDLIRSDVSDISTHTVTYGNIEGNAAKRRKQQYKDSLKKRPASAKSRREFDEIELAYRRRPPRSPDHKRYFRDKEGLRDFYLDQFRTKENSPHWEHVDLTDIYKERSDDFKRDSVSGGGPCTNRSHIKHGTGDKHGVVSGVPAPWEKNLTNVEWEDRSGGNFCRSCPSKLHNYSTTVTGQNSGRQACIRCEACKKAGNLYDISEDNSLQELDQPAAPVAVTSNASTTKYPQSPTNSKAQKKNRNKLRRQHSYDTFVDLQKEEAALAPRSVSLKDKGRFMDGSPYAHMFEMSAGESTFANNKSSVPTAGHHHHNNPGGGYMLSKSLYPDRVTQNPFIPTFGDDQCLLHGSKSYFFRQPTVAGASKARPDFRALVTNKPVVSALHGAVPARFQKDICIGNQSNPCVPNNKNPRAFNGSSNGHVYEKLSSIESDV

5-HT uptake, sequence (P31645 whole entry): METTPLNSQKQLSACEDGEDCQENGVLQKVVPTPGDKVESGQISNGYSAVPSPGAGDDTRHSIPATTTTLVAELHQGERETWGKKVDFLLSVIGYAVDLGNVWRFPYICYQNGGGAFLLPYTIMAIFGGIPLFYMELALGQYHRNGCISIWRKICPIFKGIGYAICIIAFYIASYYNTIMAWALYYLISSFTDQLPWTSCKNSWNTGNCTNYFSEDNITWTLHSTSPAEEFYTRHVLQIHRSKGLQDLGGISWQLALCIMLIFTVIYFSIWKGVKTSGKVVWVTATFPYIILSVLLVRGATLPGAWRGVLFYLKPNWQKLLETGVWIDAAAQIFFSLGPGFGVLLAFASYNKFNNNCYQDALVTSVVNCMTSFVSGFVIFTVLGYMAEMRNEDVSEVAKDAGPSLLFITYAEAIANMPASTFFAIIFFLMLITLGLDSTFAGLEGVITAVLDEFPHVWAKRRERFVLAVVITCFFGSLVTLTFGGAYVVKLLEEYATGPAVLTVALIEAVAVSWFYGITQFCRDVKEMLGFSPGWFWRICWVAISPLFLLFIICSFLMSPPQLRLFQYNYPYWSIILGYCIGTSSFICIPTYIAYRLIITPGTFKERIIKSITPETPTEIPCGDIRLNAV
5-HT2A, sequence (P28223 whole entry, species assumed): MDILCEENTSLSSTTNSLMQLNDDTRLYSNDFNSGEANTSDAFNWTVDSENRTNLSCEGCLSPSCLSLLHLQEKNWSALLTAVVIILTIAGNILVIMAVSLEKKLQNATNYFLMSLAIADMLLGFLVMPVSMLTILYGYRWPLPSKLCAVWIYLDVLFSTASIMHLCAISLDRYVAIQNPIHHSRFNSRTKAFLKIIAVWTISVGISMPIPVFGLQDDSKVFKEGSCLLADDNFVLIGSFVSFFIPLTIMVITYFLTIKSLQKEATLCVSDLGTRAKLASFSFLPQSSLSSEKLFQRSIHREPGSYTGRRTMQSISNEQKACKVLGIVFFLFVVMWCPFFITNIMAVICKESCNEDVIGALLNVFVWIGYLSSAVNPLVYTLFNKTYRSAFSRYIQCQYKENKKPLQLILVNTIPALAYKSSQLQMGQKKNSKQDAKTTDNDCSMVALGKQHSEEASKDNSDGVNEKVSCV
β3-adrenergic, sequence (P13945 whole entry): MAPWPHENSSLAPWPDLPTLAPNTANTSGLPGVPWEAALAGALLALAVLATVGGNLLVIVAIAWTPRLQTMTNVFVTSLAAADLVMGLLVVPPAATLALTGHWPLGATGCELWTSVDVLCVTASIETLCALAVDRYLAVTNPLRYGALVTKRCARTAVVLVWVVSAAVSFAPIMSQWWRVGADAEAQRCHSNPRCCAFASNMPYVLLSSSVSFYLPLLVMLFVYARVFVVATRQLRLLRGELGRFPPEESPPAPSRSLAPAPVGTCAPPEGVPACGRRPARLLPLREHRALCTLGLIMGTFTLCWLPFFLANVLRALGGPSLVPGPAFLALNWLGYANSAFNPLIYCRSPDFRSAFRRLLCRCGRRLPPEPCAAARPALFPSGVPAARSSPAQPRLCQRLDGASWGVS
histamine H1, sequence (P35367 whole entry): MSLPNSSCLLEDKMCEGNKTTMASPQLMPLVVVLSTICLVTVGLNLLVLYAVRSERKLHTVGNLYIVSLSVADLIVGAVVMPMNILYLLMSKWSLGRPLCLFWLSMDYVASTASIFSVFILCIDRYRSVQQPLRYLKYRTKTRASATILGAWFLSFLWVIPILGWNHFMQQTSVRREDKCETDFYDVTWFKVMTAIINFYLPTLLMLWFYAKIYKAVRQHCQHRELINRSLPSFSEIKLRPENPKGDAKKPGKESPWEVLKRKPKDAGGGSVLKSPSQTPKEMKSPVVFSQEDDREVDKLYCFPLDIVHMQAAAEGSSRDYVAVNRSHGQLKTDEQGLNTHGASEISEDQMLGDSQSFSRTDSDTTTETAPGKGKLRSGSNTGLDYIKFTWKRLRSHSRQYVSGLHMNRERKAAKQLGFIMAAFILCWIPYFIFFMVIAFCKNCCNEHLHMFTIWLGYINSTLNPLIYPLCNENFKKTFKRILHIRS
5-HT7, sequence (P34969 whole entry, species assumed): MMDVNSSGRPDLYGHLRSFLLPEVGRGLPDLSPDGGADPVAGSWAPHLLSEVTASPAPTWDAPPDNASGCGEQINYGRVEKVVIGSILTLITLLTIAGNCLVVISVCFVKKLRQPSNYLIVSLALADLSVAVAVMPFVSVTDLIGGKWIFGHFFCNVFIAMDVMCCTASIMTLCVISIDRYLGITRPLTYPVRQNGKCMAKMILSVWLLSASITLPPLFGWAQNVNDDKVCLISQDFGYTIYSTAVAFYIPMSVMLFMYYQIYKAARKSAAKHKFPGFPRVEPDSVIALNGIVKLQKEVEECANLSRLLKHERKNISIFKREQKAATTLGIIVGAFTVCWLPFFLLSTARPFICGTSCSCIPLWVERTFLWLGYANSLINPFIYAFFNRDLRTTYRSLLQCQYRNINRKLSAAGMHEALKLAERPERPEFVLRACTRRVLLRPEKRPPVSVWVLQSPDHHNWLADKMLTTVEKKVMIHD
histamine H2, sequence (P25021 whole entry): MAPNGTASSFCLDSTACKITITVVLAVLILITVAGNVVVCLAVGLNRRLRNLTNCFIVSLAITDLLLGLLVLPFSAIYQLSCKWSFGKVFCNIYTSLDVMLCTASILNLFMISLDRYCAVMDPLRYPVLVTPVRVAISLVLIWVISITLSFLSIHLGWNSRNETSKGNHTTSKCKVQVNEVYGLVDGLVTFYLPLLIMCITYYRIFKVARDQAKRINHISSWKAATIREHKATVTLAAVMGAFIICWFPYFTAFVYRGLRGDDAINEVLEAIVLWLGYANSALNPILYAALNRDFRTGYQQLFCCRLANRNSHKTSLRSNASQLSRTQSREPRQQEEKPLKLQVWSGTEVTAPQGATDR

**Q.** Which results are given for `OC(CN1CCC(Cc2ccc(F)cc2)CC1)c1ccc(Cl)cc1` (racemic) [Eliprodil]?
**A.** Neuroprotective effect on glutamate-induced retinal ganglion cell death (survival) [1]: marked neuroprotective activity; Threshold Dose, Heart Rate Decrease [2]: 0.1 mg/kg; Threshold Dose, Mean Blood Pressure Decrease [2]: 1.0 mg/kg; Threshold Dose, QTc Prolongation [2]: 0.03 mg/kg; Antagonism at voltage operated calcium channels [3]: shows antagonism; Antagonism at sodium channels [4]: shows antagonism; Recovery of excitatory post synaptic potentials following hypoxia (efficacy) [5]: less effective; Effect on APD90 at low concentrations [6]: intermediate between the two enantiomers; Maximum effect on APD90 [6]: equal to that of S(+) eliprodil; Affinity [7]: sub-micromolar; Affinity [8]: sub-micromolar; Affinity [9]: sub-micromolar; Affinity [10]: sub-micromolar; Affinity [11]: sub-micromolar; Affinity [12]: sub-micromolar; Affinity [13]: sub-micromolar; Affinity [14]: sub-micromolar; Inhibition of NMDA-induced firing rate of the lateral vestibular nucleus [15]: strongly inhibit; QTc prolongation [16]: asymptomatic QTc prolongation

**Q.** Which “Neuroprotective effect on glutamate-induced retinal ganglion cell death (survival)” value [1] does the source give for `O[C@@H](CN1CCC(Cc2ccc(F)cc2)CC1)c1ccc(Cl)cc1` [R-eliprodil, R-α-(4-chlorophenyl)-4-(4-fluorophenylmethyl)-1-peperidineethanol] here?
**A.** marked neuroprotective activity; also recorded: as efficacious as a protectant as racemic eliprodil

**Q.** And the “Threshold Dose, Heart Rate Decrease” value [2]?
**A.** 0.3 mg/kg

**Q.** What about the “Threshold Dose, Mean Blood Pressure Decrease” value [2] of the same molecule?
**A.** 1.0 mg/kg

**Q.** What about the “Threshold Dose, QTc Prolongation” value [2] of the same molecule?
**A.** 0.1 mg/kg

**Q.** And the Plasma level ([2]; iv, 0.1 mg/kg)?
**A.** 0.0349 ± 0.0028 µg/mL

**Q.** And the Ki [17]?
**A.** 0.2 µM

**Q.** What about the “Recovery of excitatory post synaptic potentials following hypoxia (efficacy)” value [5] of the same molecule?
**A.** substantial recovery; also recorded: more efficacious than either racemic or S-eliprodil

**Q.** And the “Potency (EC50) for recovery of synaptic transmission, compared with racemic-eliprodil or memantine” value ([5]; p<0.05, Student's t-test, FIG. 2)?
**A.** statistically significantly more potent

**Q.** What about the “Maximum effect on APD90” value [6] of the same molecule?
**A.** less than is that seen with S(+) eliprodil

**Q.** And the “Concentration with statistically significant prolongation of APD90” value [6]?
**A.** ≥ 0.1 µM

**Q.** And the “Inhibition of NMDA-induced firing rate of the lateral vestibular nucleus” value [15]?
**A.** strongly inhibit

**Q.** What does the source list for `O[C@H](CN1CCC(Cc2ccc(F)cc2)CC1)c1ccc(Cl)cc1` [S-eliprodil]?
**A.** Neuroprotective effect on glutamate-induced retinal ganglion cell death (survival) [1]: ineffective; Threshold Dose, Heart Rate Decrease [2]: 0.1 mg/kg; Threshold Dose, Mean Blood Pressure Decrease [2]: 1.0 mg/kg; Threshold Dose, QTc Prolongation [2]: 0.01 mg/kg; Ki [17]: 10 µM; Recovery of excitatory post synaptic potentials following hypoxia (efficacy) [5]: less effective; Concentration with statistically significant prolongation of APD90 [6]: ≥ 0.03 µM; Inhibition of NMDA-induced firing rate of the lateral vestibular nucleus [15]: almost inactive at the highest dose tested
